Results from US5561139A, “Substituted alicyclic-aliphatic amine-containing macrocyclic immunomodulators” (Abbott Laboratories, priority 1995, dated 1996).

System: human mixed lymphocyte reaction (MLR)
Test: human mixed lymphocyte reaction (MLR) assay, immunosuppressant activity
Format: cell-based
Settings: Table 1
Experimental: Example 68; In Vitro Assay of Biological Activity
The immunosuppressant activity of the compounds of the present invention was determined using the human mixed lymphocyte reaction (MLR) assay described by Kino, T. et al. in Transplantation Proceedings XIX(5);36-39, Suppl. 6 (1987), incorporated herein by reference.

Compound | IC50 [nM]
CC[C@@H]1/C=C(\C)C[C@H](C)C[C@H](OC)[C@H]2O[C@@](O)(C(=O)C(=O)N3CCCC[C@H]3C(=O)O[C@H](/C(C)=C/[C@@H]3CC[C@H](NCCCN4CCOCC4)[C@H](OC)C3)[C@H](C)[C@@H](O)CC1=O)[C@H](C)C[C@@H]2OC [Example 17] | < 1000
CC[C@@H]1/C=C(\C)C[C@H](C)C[C@H](OC)[C@H]2O[C@@](O)(C(=O)C(=O)N3CCCC[C@H]3C(=O)O[C@H](/C(C)=C/[C@@H]3CC[C@H](NCCCN4CCN(C)CC4)[C@H](OC)C3)[C@H](C)[C@@H](O)CC1=O)[C@H](C)C[C@@H]2OC [Example 12] | < 1000
CC[C@@H]1/C=C(\C)C[C@H](C)C[C@H](OC)[C@H]2O[C@@](O)(C(=O)C(=O)N3CCCC[C@H]3C(=O)O[C@H](/C(C)=C/[C@@H]3CC[C@H](N(CCO)CCN4CCOCC4)[C@H](OC)C3)[C@H](C)[C@@H](O)CC1=O)[C@H](C)C[C@@H]2OC [Example 30] | < 1000
CC[C@@H]1/C=C(\C)C[C@H](C)C[C@H](OC)[C@H]2O[C@@](O)(C(=O)C(=O)N3CCCC[C@H]3C(=O)O[C@H](/C(C)=C/[C@@H]3CC[C@H](NC4CCN(Cc5ccccc5)CC4)[C@H](OC)C3)[C@H](C)[C@@H](O)CC1=O)[C@H](C)C[C@@H]2OC [Example 8] | < 1000
CC[C@@H]1/C=C(\C)C[C@H](C)C[C@H](OC)[C@H]2O[C@@](O)(C(=O)C(=O)N3CCCC[C@H]3C(=O)O[C@H](/C(C)=C/[C@@H]3CC[C@H](NCCN4CCNCC4)[C@H](OC)C3)[C@H](C)[C@@H](O)CC1=O)[C@H](C)C[C@@H]2OC [Example 18] | < 1000

The remaining lines, values ahead:

IC50 [nM] | Compound
< 1000 | CC[C@@H]1/C=C(\C)C[C@H](C)C[C@H](OC)[C@H]2O[C@@](O)(C(=O)C(=O)N3CCCC[C@H]3C(=O)O[C@H](/C(C)=C/[C@@H]3CC[C@@H](NCCCN4CCCCC4)[C@H](OC)C3)[C@H](C)[C@@H](O)CC1=O)[C@H](C)C[C@@H]2OC [Example 47]
< 1000 | CC[C@@H]1/C=C(\C)C[C@H](C)C[C@H](OC)[C@H]2O[C@@](O)(C(=O)C(=O)N3CCCC[C@H]3C(=O)O[C@H](/C(C)=C/[C@@H]3CC[C@H](NCCCN4CCCCC4)[C@H](OC)C3)[C@H](C)[C@@H](O)CC1=O)[C@H](C)C[C@@H]2OC [Example 9]
< 1000 | CC[C@@H]1/C=C(\C)C[C@H](C)C[C@H](OC)[C@H]2O[C@@](O)(C(=O)C(=O)N3CCCC[C@H]3C(=O)O[C@H](/C(C)=C/[C@@H]3CC[C@H](NCCN4CCCC4)[C@H](OC)C3)[C@H](C)[C@@H](O)CC1=O)[C@H](C)C[C@@H]2OC [Example 19]
< 1000 | CC[C@@H]1/C=C(\C)C[C@H](C)C[C@H](OC)[C@H]2O[C@@](O)(C(=O)C(=O)N3CCCC[C@H]3C(=O)O[C@H](/C(C)=C/[C@@H]3CC[C@H](NCCN4CCOCC4)[C@H](OC)C3)[C@H](C)[C@@H](O)CC1=O)[C@H](C)C[C@@H]2OC [Example 5]
